Measurements from patent US20090264420A1, “ORGANIC COMPOUNDS” (priority 2006, published 2009).

What was measured:
aldosterone synthase = target: T1, aldosterone synthase (Homo sapiens, UniProt P19099); test: Aldosterone production in Ang II-stimulated NCI-H295R cells (aldosterone synthase inhibition); format: cell-based; conditions: AS: aldosterone synthase
T1 construct: host or cells: NCI-H295R
T1 sequence (P19099 25-503): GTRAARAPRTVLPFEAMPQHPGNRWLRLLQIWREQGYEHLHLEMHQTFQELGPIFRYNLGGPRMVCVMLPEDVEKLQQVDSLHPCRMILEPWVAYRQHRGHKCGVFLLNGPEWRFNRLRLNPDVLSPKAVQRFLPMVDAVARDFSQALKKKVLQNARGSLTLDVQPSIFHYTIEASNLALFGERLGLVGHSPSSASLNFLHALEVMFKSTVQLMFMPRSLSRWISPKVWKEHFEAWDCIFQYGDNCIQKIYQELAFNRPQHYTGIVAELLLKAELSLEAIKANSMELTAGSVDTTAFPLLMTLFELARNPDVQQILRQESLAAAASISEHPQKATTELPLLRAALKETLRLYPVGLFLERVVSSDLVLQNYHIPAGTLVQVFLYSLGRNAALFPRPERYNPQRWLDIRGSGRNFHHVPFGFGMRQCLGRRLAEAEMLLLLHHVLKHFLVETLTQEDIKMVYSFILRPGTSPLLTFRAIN
Excerpt: (§1) Human adrenocortical carcinoma NCI-H295R cell line is obtained from American Type Culture Collection (Manassas, Va.). Insulin/transferrin/selenium (ITS)-A supplement (100×), DMEM/F-12, antibiotic/antimycotic (100×), and fetal calf serum (FCS) are purchased from Gibco (Grand Island, N.Y.). Anti-mouse PVT scintillation proximity assay (SPA) beads and NBS 96-well plates are obtained from Amersham (Piscataway, N.J.) and Corning (Acton, Mass.), respectively. Solid black 96-well flat bottom plates are purchased from Costar (Corning, N.Y.). Aldosterone and angiotensin (Ang II) are purchased from Sigma (St. Louis, Mo.). D-[1,2,6,7^−3H(N)]aldosterone was acquired from PerkinElmer (Boston, Mass.). Nu-serum was a product of BD Biosciences (Franklin Lakes, N.J.). The NADPH regenerating system, dibenzylfluorescein (DBF), and human aromatase Supersomes® are obtained from Gentest (Woburn, Mass.).
For in vitro measurement of aldosterone activity, human adrenocortical carcinoma NCI-H295R cells are seeded in NBS 96-well plates at a density of 25,000 cells/well in 100 μl′ of a growth medium containing DMEM/F12 supplemented with 10% FCS, 2.5% Nu-serum, 1 μg ITS/ml, and 1× antibiotic/antimycotic. The medium is changed after culturing for 3 days at 37° C. under an atmosphere of 5% CO2/95% air. On the following day, cells are rinsed with 100 μl of DMEM/F12 and incubated with 100 μl of treatment medium containing 1 μM Ang II and a compound at different concentrations in quadruplicate wells at 37° C. for 24 hr. At the end of incubation, 50 μl of medium is withdrawn from each well for measurement of aldosterone production by an RIA using mouse anti-aldosterone monoclonal antibodies.
Measurement of aldosterone activity can also be performed using, a 96-well plate format. Each test sample is incubated with 0.02 μCi of D-[1,2,6,7-^3H(N)]aldosterone and 0.3 μg of anti-aldosterone antibody in phosphate-buffered saline (PBS) containing 0.1% Triton X-100, 0.1% bovine serum albumin, and 12% glycerol in a total volume of 200 μl at room temperature for 1 hr. Anti-mouse PVT SPA beads (50 μl) are then added to each well and incubated overnight at room temperature prior to counting in a Microbeta plate counter. The amount of aldosterone in each sample is calculated by comparing with a standard curve generated using known quantities of the hormone.
(§2) Full concentration-response curves of the test compound are performed at least 3 times. The IC50 values are derived using a non-linear least squares curve-fitting program from Microsoft XLfit.

human aromatase = target: T2, human aromatase (Homo sapiens, UniProt P11511); test: Human aromatase assay with dibenzylfluorescein substrate (fluorescence); format: biochemical; conditions: 1.5 h; percentage of inhibitory rate at 10 μM; ARO: Aromatase; read-out: ARO % I @ 10 μM
T2 construct: purchased Gentest (Woburn, Mass.)
T2 sequence (P11511 1-503): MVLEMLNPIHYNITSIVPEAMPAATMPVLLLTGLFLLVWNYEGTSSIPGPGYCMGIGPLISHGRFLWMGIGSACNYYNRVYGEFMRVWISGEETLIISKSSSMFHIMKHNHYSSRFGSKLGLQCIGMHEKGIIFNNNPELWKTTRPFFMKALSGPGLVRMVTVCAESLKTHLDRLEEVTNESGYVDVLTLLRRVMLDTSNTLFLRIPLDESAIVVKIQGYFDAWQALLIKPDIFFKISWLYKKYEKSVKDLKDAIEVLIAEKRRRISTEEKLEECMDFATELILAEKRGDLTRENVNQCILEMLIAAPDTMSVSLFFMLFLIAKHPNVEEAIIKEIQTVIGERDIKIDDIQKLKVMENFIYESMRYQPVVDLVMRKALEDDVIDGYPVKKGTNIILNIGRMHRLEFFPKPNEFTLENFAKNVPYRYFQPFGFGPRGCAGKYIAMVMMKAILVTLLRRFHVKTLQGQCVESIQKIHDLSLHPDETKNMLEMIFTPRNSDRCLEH
Excerpt: as §1
To measure aromatase activity, the human aromatase assay is performed in 96-well flat bottom plates according to a published protocol (Stresser et al, 2000) with minor modifications. Briefly, 10 μl, of an NADPH regenerating system containing 2.6 mM NADP^+, 6.6 mM glucose 6-phosphate, 6.6 mM MgCl2, and 0.8 U/ml glucose-6-phosphate dehydrogenase in 50 mM potassium phosphate, pH 7.4, is pre-incubated with the test compound at a desired concentration at 30° C. for 10 min in a total volume of 100 μl. Afterwards, 4 pmol of human aromatase, 20 μg of control microsomal protein, and 4 μM DBF in 100 μl of 50 mM potassium phosphate, pH 7.4, is added to each well and incubated at 30° C. for 90 min. The reaction is terminated by the addition of 75 μl of 2 N NaOH to each well. After 2 hr, the product, fluorescein, is measured by a fluorimeter using excitation and emission wavelengths of 485 and 538 nm, respectively.
as §2

CYP11B1 = target: T3, CYP11B1 (Homo sapiens, UniProt P15538); test: CYP11B1 inhibition in NCI-H295R cells (steroid release by radioimmunoassay); format: cell-based; conditions: percentage of inhibitory rate at 100 nM; 11B1: CYP11B1
T3 construct: Thus, the NCI-H295R cells have Cyp 11 B1 (steroid 11 p-hydroxylase); host or cells: NCI-H295R
T3 sequence (P15538 25-503): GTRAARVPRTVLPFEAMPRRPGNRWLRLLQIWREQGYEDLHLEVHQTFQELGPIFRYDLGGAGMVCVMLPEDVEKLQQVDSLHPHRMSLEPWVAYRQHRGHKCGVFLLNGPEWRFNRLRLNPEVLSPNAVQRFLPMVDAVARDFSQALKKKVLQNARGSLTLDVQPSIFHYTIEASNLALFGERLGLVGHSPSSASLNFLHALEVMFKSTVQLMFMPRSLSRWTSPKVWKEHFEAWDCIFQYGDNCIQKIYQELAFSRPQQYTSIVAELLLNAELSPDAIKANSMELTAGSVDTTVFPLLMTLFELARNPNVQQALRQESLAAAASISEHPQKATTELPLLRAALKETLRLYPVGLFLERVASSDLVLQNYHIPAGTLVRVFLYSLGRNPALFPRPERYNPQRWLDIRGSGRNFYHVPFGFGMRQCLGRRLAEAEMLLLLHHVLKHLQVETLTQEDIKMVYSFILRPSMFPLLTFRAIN
Excerpt: The in vitro inhibitory activities for CYP 11 B1 can be determined by the following assay.
The cell line NCI-H295R was originally isolated from an adrenocortical carcinoma and has been characterized in the literature through the stimulable secretion of steroid hormones and the presence of the enymes essential for steroidogenesis. Thus, the NCI-H295R cells have Cyp 11 B1 (steroid 11 p-hydroxylase). The cells show the physiological property of zonally undifferentiated human foetal adrenocortical cells which, however, have the capacity to produce the steroid hormones which are formed in the three, phenotypically distinguishable zones in the adult adrenal, cortex.
The NCI-H295R cells (American Type Culture Collection, ATCC, Rockville, Md., USA) are grown in Dulbeoco's Modified Eagle Ham F-12 Medium (DME/F12), which has been I supplemented with Ulroser SF Serum (Soprachem, Cergy-Saint-Christophe, France), insulin, transferrin, selenite (1-T-S, Becton Dickinson Biosiences, Franklin lakes, NJ, USA) and antibiotics in 75 cm^2 cell culture vessels at 37° C. and in a 95% air-5% carbon dioxide atmosphere. The cells are subsequently transferred for colony formation into a 24-well incubation vessel. They are cultivated there in DME/F12 medium, which is now supplemented with 0.1% bovine serum instead of Ultroser SF for 24 hours. The experiment is initiated by cultivating the cells in DME/F12 medium which is supplemented with 0.1% bovine serum albumin and test compound, in the presence or absence of cell stimulants, for 72 hours. The test substance is added in a concentration range from 0.2 nanomolar to […]. […]
The excretion of aldosterone, cortisol, corticosterone and estradiol/estrone into the culture medium can be detected and quantified by commercially available; specific monoclonal antibodies in radioimmunoassays in accordance with the manufacturer's instructions.
Inhibition of the release of certain steroids can be used as a measure of the respective enzyme inhibition by the added test compounds. The dose-dependent inhibition of enzymic activity by a compound is calculated by means of an inhibition plot which is characterized by an IC50.
The IC50 values for active test compounds are ascertained by a simple linear regression analysis in order to construct inhibition plots without data weighting. The inhibition plot is calculated by fting a 4-parameter logistic function to the raw data points using the least squares method. The equation of the 4-parameter logistic function is calculated as follows: Y=(d−a)/((1+(x/c)b))+aI where: a=minimum data level b gradient I c=ICED d=maximum data level x=inhibitor concentration.

| SMILES | IC50 (aldosterone synthase) | inhibition at 10 µM (human aromatase) | 11B1 % I @ 100 nM (CYP11B1) |
| --- | --- | --- | --- |
| CCC1(C(C)(C)C)C(=O)N(Cc2ccc(F)cc2)Cc2cncn21 (single isomer, unassigned) [Compound 1, 5-tert-Butyl-5-ethyl-7-(4-fluoro-benzyl)-7,8-dihydro-imidazo[1,5-a]pyrazin-6-one] | 139 nM | 18% |  |
| CCC(C)(C)C1C(=O)N(Cc2cccc(F)c2)CCc2cncn21 (single isomer, unassigned) [Compound 2, 4-(1,1-Dimethyl-propyl)-6-(3-fluoro-benzyl)-7,8-dihydro-6H-2,3a,6-triaza-azulen-5-one] | 48 nM | 60% | 100% |
| CC(C)C1C(=O)N(CC2CCCCC2)Cc2cncn21 (single isomer, unassigned) [Compound 3, 7-Cyclohexylmethyl-5-isopropyl-7,8-dihydro-imidazo[5-a]pyrazin-6-one] | 11 nM | 48% |  |
| O=C1C(C2CCC2)n2cncc2CN1Cc1ccc(F)cc1 (single isomer, unassigned) [Compound 5, 5-Cyclobutyl-7-(4-fluoro-benzyl)-7,8-dihydro-imidazo[1,5-a]pyrazin-6-one] | 18 nM | 93% |  |
| CC(C)(C)C1C(=O)N(Cc2ccc(Cl)cc2)Cc2cncn21 (single isomer, unassigned) [Compound 6, 5-tert-Butyl-7-(4-chloro-benzyl)-7,8-dihydro-imidazo[1,5-a]pyrazin-6-one] | 3 nM | 51% | 98% |
| CCC(C)(C)C1C(=O)N(CC2CCCCC2)Cc2cncn21 (single isomer, unassigned) [Compound 7, 7-Cyclohexylmethyl-5 (1,1-dimethyl-propyl)-7,8-dihydro-imidazo[1,5-a]pyrazin-6-one] | 7 nM | 50% |  |
| N#Cc1ccc(CN2Cc3cncn3C(C3CC3)C2=O)cc1 (single isomer, unassigned) [Compound 8, 4-(5-Cyclopropyl-6-oxo-5,6-dihydro-8H-imidazo[1,5-a]pyrazin-7-ylmethyl)-benzonitrile] | 66 nM | 74% | 95% |
| CC(C)C1C(=O)N(Cc2cccc(F)c2)Cc2cncn21 (single isomer, unassigned) [Compound 9, 7-(3-Fluoro-benzyl)-5-isopropyl-7,8-dihydro-imidazo[1,5-a]pyrazin-6-one] | 231 nM | 94% |  |
| CCC(C)(C)C1C(=O)N(CC2CCOCC2)Cc2cncn21 (single isomer, unassigned) [Compound 10, 5-(1,1-Dimethyl-propyl)-7-(tetrahydro-pyran-4-ylmethyl)-7,8-dihydro-imidazo[5-a]pyrazin-6-one] | 190 nM |  |  |
| O=C1C(C2CCC2)n2cncc2CCN1Cc1ccc(F)cc1 (single isomer, unassigned) [Compound 11, 4-Cyclobutyl-6-(4-fluoro-benzyl)-7,8-dihydro-6H-2,3a,6-triaza-azulen-5-one] | 197 nM | 99% |  |
| O=C1N(Cc2ccc(F)cc2)Cc2cncn2C12CCCCC2 [Compound 4, 7′-(4-fluorobenzyl)-7′,8′-dihydro-6′H-spiro[cyclohexane-1,5′-imidazole[1,5-a]pyrazin]-6-one] | 73 nM |  | 99% |
